From patent US12054509B2, “Antimicrobial compounds, compositions, and uses thereof” (Lakewood Amedex, Inc., priority 2017, dated 2024) come the findings set out here.

One data set concerns E. coli ATCC25922. Nature of the data set: Urinary tract infection model in Sprague-Dawley rats, transurethral treatment (Example 12). Particulars: 60 min. It is filed as in vivo. The procedure: Female Sprague-Dawley rats (n=6/group) are intraurethrally infected with the pre determined inoculum size of E. coli. At the specified time following infection with (depending on the in vivo growth curve), the animals are anaesthetized (ketamine/xylazine) and treated by transurethral administration with neutral saline (group 1), saline pH 3.5 adjusted with phosphoric acid (group 2), test compound Nu-8 pH 3.5 at 103 and 207 mg/kg (groups 3 and 4, respectively). When adjusting pH, the volume of phosphoric acid added are monitored and the final concentration of the pH adjusted dose solution are subsequently determined. The goal is to have the final concentration after pH adjustment within 10% of the desired dose so the final concentration after pH adjustment are reported. Volume of administration will be 300 μL. TABLE 10 (Animal Challenge and Treatment Schedule) summarizes the study groups.
Two hours prior to each infection animals are water deprived. Each animal is infected twice with 24 hrs difference by transurethral administration of 300 μL of bacterial suspension under light ketamine and xylazine anaesthesia. Prior to infection, urine is evacuated by digital pressure, cannula is gently inserted into the bladder via urethra and 300 μL of bacterial suspension is inserted into the bladder. […]

The test system of the next data set is P. aeruginosa K2732. The experiment in a line: Bacterial cytological profiling (Example 6), P. aeruginosa.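 For effect on cell envelope: tested at 1 0.5 and 0.25 times MIC.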 It is filed as cell-based. The protocol:
This bacterial cytological profiling (BCP) study uses methods and materials described previously by Nonejuie, P., Burkart, M., Poglianoa, K., Pogiano, J. (2013). Bacterial cytological profiling rapidly identifies the cellular pathways targeted by antibacterial molecules. Proc. Natl. Acad. Sci. U.S.A. 110(40):16169-16174. doi: 10.1073/pnas.1311066110.
Wild type strains of E. coli ATCC 25922 or P. aeruginosa K2732 are grown in rich media (unbuffered 2× Lysogeny broth [LB]) at 30 C to an OD600˜0.4. These cultures are then split and each sample treated with the appropriate concentration of Nu-8 in unbuffered or buffered LB (final mixture OD600˜0.1). Cells exposed without Nu-8 are buffered to pH 4 with phosphoric acid.
The BCP is performed in LB media buffered to pH 4. The minimum inhibitory concentration (MIC) is measured for Nu-3, Nu-4, Nu-5, and Nu-8 against each bacterial strain. As one of ordinary skill in the art understands, minimum inhibitory concentrations are the lowest concentration of an antimicrobial that will inhibit the visible growth of a microorganism after overnight incubation. […] Cellular viability is assayed at three time points (5 minutes and 4 and 24 h following the onset of treatment).
For imaging E. coli, treated cells are stained with 1 μg/Ml FM4-64, 2 μg/mL DAPI, and 0.5 μM SYTOXGreen (Molecular Probes/Invitrogen). P. aeruginosa samples are stained 0.5 μM SYTOX Green, 28 μg/mL DAPI, and 4.5 μg/mL FM 4-64. Cells are transferred to an agarose pad (20% LB, 1% agarose) for imaging as described in Pogliano, J., Osborne, N., Sharp, M. D., Abanes-De Mello, A., Perez, A., Sun, Y.-L. and Pogliano, K. (1999), A vital stain for studying membrane dynamics in bacteria: a novel mechanism controlling septation during Bacillus subtilis sporulation. Molecular Microbiology, 31: 1149-1159. doi:10.1046/j.1365-2958.1999.01255.x.

For data set [1], the system named is Escherichia coli. Nature of the data set: MIC against a single isolate (Example 26). It counts as cell-based. Particulars: single isolate, read-out: E. coli MIC. The protocol: (§1) Bacterial strains evaluated in this study include Escherichia coli, Klebsiella spp, Serratia marcescens, Proteus mirabilis/vulgaris, Citrobacter spp, Providencia spp, Morganella morganii, Pseudomonas aeruginosa, Staphylococcus aureus (MRSA only), and Enterococcus faecalis. Nu-8 test solutions are adjusted to pH 3.5 with citric acid, and MIC is evaluated per the CLSI methods in Mueller-Hinton broth supplemented accordingly to facilitate growth of specific strains.
(§2) MIC was determined as per Example 9 using LAI-101, LAI-102, Nu-10, LAI-105, LAI-106, Nu-3, and Nu-8 against a single isolate of Escherichia coli. Pseudomonas aeruginosa, Staphylococcus aureus (MRSA only), and Candida Albicans. For all microbe species, the LAI-101, LAI-102, Nu-10, LAI-105, and LAI-106 all perform at least as well as, and in many experiments better than, Nu-8 and Nu-3, which are both already quite active compounds.

The subject of data set [2] is Pseudomonas aeruginosa. Nature of the data set: MIC against a single isolate (Example 26). Particulars: single isolate, read-out: P. aeruginosa MIC. It counts as cell-based. The protocol: as §1, §2
Data set [3] has as its system Staphylococcus aureus (MRSA only). The experiment in a line: MIC against a single isolate (Example 26). It counts as cell-based. Particulars: single isolate, read-out: S. aureus MIC. The protocol:
as §1, §2

For another data set, the system named is Candida Albicans. The experiment in a line: MIC against a single isolate (Example 26). It counts as cell-based. Particulars: single isolate, read-out: C. albicans MIC. The protocol:
as §1, §2

The test system of a further data set is Klebsiella pneumoniae. The experiment in a line: MIC at pH 3.5 (CLSI, Mueller-Hinton broth). It counts as cell-based. Particulars: 5 isolates. The protocol: as §1
In another data set the test system is Enterococcus faecalis. Nature of the data set: MIC at pH 3.5 (CLSI, Mueller-Hinton broth). It is filed as cell-based. Particulars: 5 isolates. The procedure: as §1
The test system of data set [4] is Proteus mirabilis/vulgaris. The experiment in a line: MIC at pH 3.5 (CLSI, Mueller-Hinton broth). It counts as cell-based. Particulars: 5 isolates. The procedure: as §1
The test system of a further data set is Morganella morganii. Nature of the data set: MIC at pH 3.5 (CLSI, Mueller-Hinton broth). It is filed as cell-based. Particulars: 5 isolates. The procedure: as §1
In data set [5] the test system is Escherichia coli. Nature of the data set: MIC at pH 3.5 (CLSI, Mueller-Hinton broth). It counts as cell-based. Particulars: 5 isolates. The protocol: as §1
In a further data set the test system is Citrobacter species. Nature of the data set: MIC at pH 3.5 (CLSI, Mueller-Hinton broth). It is filed as cell-based. Particulars: 5 isolates. The procedure: as §1
The subject of data set [6] is Pseudomonas aeruginosa. Nature of the data set: MIC at pH 3.5 (CLSI, Mueller-Hinton broth). It is filed as cell-based. Particulars: 20 isolates. The procedure: as §1
The test system of another data set is Serratia marcescens. The experiment in a line: MIC at pH 3.5 (CLSI, Mueller-Hinton broth). It is filed as cell-based. Particulars: 5 isolates. The procedure: as §1
Data set [7] relates to Staphylococcus aureus (MRSA). Nature of the data set: MIC at pH 3.5 (CLSI, Mueller-Hinton broth). It counts as cell-based. Particulars: 20 isolates. The protocol: as §1
A further data set deals with Providencia species. The experiment in a line: MIC at pH 3.5 (CLSI, Mueller-Hinton broth). It counts as cell-based. Particulars: 5 isolates. The protocol: as §1
A further data set in a line: Solubility. It is filed as physicochemical. Particulars: unit inferred.

As a reminder, the MIC is the lowest concentration that inhibits growth of the organism. A word on the MIC50: it is the lowest concentration that inhibits either 50% of growth or 50% of the strains tested, depending on the study. What is called MIC90 is the lowest concentration that inhibits either 90% of growth or 90% of the strains tested, depending on the study. A lower MIC90 goes with higher susceptibility. The solubility is the concentration that dissolves in the medium under given conditions. Read a high solubility as much dissolved substance. Turning to `CCCCOP(=O)(O)OC[C@H]1O[C@@H](n2ccc(N)nc2=O)C[C@@H]1OP(=O)(O)OCCCC` [Nu-8, sodium ((2R,3S,5R)-5-(4-amino-2-oxopyrimidin-1(2H)-yl)-3-((butoxyoxidophosphor-yl)oxy)tetrahydrofuran-2-yl)methyl butyl phosphate], the results for the “mean CFU per mL of bladder tissue (tissue plus urine)” value in the data set on E. coli ATCC25922 (103 mg/kg pH 3.5 transurethral) and in the data set on E. coli ATCC25922 (207 mg/kg pH 3.5 transurethral) were 5.53 Log 10 CFUs/mL bladder tissue and 4.60 Log 10 CFUs/mL bladder tissue, respectively. In addition, the “effect on cell envelope” value in the data set with P. aeruginosa K2732 (BCP) is listed as “affect the cell envelope”. Also, the cell membrane permeability entry in the data set on P. aeruginosa K2732 (buffered pH 4 or unbuffered LB) is on record as “increase cell membrane permeability”. Also, the MIC was over 50 mg/mL with Escherichia coli [1]; over 50 mg/mL with Pseudomonas aeruginosa [2]; over 50 mg/mL in [3]; over 50 mg/mL in the data set on Candida Albicans; 37.5 to 75 mg/mL against Klebsiella pneumoniae; 4.69 to 18.8 mg/mL in the data set with Enterococcus faecalis. Moreover, the MIC in data set [4] is 4.69 to 18.8 mg/mL; against Morganella morganii it was 18.8 mg/mL; against Escherichia coli [5], 37.5 mg/mL; in the data set on Citrobacter species, 18.8 to 37.5 mg/mL; with Pseudomonas aeruginosa [6] it was 9.38 to 18.8 mg/mL; in the data set on Serratia marcescens, 37.5 to 75 mg/mL. Moreover, the minimum inhibitory concentration (MIC) (in [7]; against Providencia species) was 9.38 to 37.5 mg/mL throughout. Besides, the MIC50 (against Pseudomonas aeruginosa [6]; in data set [7]) was 18.8 mg/mL in each case. The values for the MIC90 (in the data set on Pseudomonas aeruginosa [6]; in data set [7]) were 18.8 mg/mL and 37.5 mg/mL, respectively. In “Solubility”, the solubility worked out at 137 mg/mL.
